According to ChEMBL document CHEMBL3085718, “Discovery and optimization of orally active cyclohexane-based prolylcarboxypeptidase (PrCP) inhibitors” (Bioorg Med Chem Lett, 2013):

Experiments:
in vivo [1] = settings: mouse, po
in vivo [2] = settings: mouse
in vivo [3] = settings: C57, mouse, plasma, po, 30 mg/kg
[4] = Plasma concentration in C57 mouse at 10 mg/kg, po after 20 hrs by LC/MS analysis; type: ADME, organism-based; parameters: dose 10 mg/kg, route oral

Compound	bioavailability (in vivo [1])	half-life (in vivo [2])	concentration at 20 h (in vivo [3])	concentration at 20 h [4]
O=C(NC(c1ccncc1)c1ccc(F)cc1)[C@@H]1CC[C@@H](N2CCOCC2)C[C@H]1c1ccc(Br)cc1 (stereo not given in full)	6.9%	2 h	–	–
O=C(NC(c1ccc(F)cc1)c1ccc(F)cc1)[C@@H]1CC[C@@H](N2CCOCC2)C[C@H]1c1ccc(Br)cc1	77%	7.6 h	1020 nM	–
O=C(NC(c1ccc(Cl)cc1)c1ccnc(F)c1)[C@@H]1CC[C@@H](N2CCOCC2)C[C@H]1c1ccc(Br)cc1 (stereo not given in full)	90%	2.9 h	390 nM	163 nM
O=C(NC(c1ccc(Cl)cc1)c1ccc(F)cn1)[C@@H]1CC[C@@H](N2CCOCC2)C[C@H]1c1ccc(Br)cc1 (stereo not given in full)	50%	4.9 h	1840 nM	–
O=C(NC(c1ccccc1)c1ccccc1)[C@@H]1CC[C@@H](N2CCOCC2)C[C@H]1c1ccc(Br)cc1	36%	3.1 h	–	–

Results, then the compound that gave them:

bioavailability (in vivo [1])	half-life (in vivo [2])	concentration at 20 h (in vivo [3])	concentration at 20 h [4]	Compound
8.9%	1.4 h	–	–	O=C(NC(c1ccncc1)c1ccc(Cl)cc1)[C@@H]1CC[C@@H](N2CCOCC2)C[C@H]1c1ccc(Br)cc1 (stereo not given in full)
17%	1.5 h	–	–	O=C(NC(c1ccc(Cl)cc1)c1ccncc1Cl)[C@@H]1CC[C@@H](N2CCOCC2)C[C@H]1c1ccc(Br)cc1 (stereo not given in full)
5.2%	1.2 h	–	–	O=C(NC(c1ccc(Cl)cc1)c1cnccn1)[C@@H]1CC[C@@H](N2CCOCC2)C[C@H]1c1ccc(Br)cc1 (stereo not given in full)
